# Patent US12391648B2, “Pyridyloxy thioester derivative and preparation method therefor, herbicidal composition, and application” (Qingdao Kingagroot Chemical Compound Co., Ltd., priority 2018, dated 2025)
# Tests used:
# Test in all cases: Post-emergence test experiment (Table 3, 1000 g/ha)
# Assay type in all cases: in vivo
# Settings in all cases: post-emergence spray, after 3 weeks, fresh weight inhibition
# Leptochloa chinensis = system: Leptochloa chinensis
# Procedure, shortened: (§1)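 Weed seeds sown in soil-filled pots in greenhouse, sprayed at 2-3 leaf stage (2 weeks after sowing) with compound in acetone/tween-80 plus methyl oleate emulsible concentrate (1.5 L/ha) diluted in water. Fresh-weight growth inhibition scored after 3 weeks on 0-5 scale (5: >85%, 0: <5%).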
# Galium spurium = system: Galium spurium
# Procedure, shortened: as §1
# Monochoria vaginalis = system: Monochoria vaginalis
# Procedure, shortened: as §1
# Abutilon theophrasti = system: Abutilon theophrasti
# Procedure, shortened: as §1
# Setaria viridis = system: Setaria viridis
# Procedure, shortened: as §1
# Digitaria sanguinalis = system: Digitaria sanguinalis
# Procedure, shortened: as §1
structure (smiles),measurement,setting,value
CC(Oc1nc(F)c(Cl)c(N)c1Cl)C(=O)SC(C)C(C)C (stereo not drawn) [Compound 147],Activity level (growth inhibition rate) Leptochloa chinensis,Leptochloa chinensis,5 (Level 5: the growth inhibition rate is greater than 85%)
same,Activity level (growth inhibition rate) Galium spurium,Galium spurium,5 (Level 5: the growth inhibition rate is greater than 85%)
same,Activity level (growth inhibition rate) Monochoria Vaginalis,Monochoria vaginalis,5 (Level 5: the growth inhibition rate is greater than 85%)
same,Activity level (growth inhibition rate) Abutilon theophrasti,Abutilon theophrasti,5 (Level 5: the growth inhibition rate is greater than 85%)
same,Activity level (growth inhibition rate) Setaria viridis,Setaria viridis,5 (Level 5: the growth inhibition rate is greater than 85%)
same,Activity level (growth inhibition rate) Digitaria sanguinalis,Digitaria sanguinalis,5 (Level 5: the growth inhibition rate is greater than 85%)
CC(Oc1nc(F)c(Cl)c(N)c1Cl)C(=O)SCC(C)(C)C (stereo not drawn) [Compound 148],Activity level (growth inhibition rate) Leptochloa chinensis,Leptochloa chinensis,5 (Level 5: the growth inhibition rate is greater than 85%)
same,Activity level (growth inhibition rate) Galium spurium,Galium spurium,5 (Level 5: the growth inhibition rate is greater than 85%)
same,Activity level (growth inhibition rate) Monochoria Vaginalis,Monochoria vaginalis,5 (Level 5: the growth inhibition rate is greater than 85%)
same,Activity level (growth inhibition rate) Abutilon theophrasti,Abutilon theophrasti,5 (Level 5: the growth inhibition rate is greater than 85%)
same,Activity level (growth inhibition rate) Setaria viridis,Setaria viridis,5 (Level 5: the growth inhibition rate is greater than 85%)
same,Activity level (growth inhibition rate) Digitaria sanguinalis,Digitaria sanguinalis,5 (Level 5: the growth inhibition rate is greater than 85%)
CC(Oc1nc(F)c(Cl)c(N)c1Cl)C(=O)Sc1cccc(C(C)C)c1 (stereo not drawn) [Compound 113],Activity level (growth inhibition rate) Leptochloa chinensis,Leptochloa chinensis,5 (Level 5: the growth inhibition rate is greater than 85%)
same,Activity level (growth inhibition rate) Galium spurium,Galium spurium,5 (Level 5: the growth inhibition rate is greater than 85%)
same,Activity level (growth inhibition rate) Monochoria Vaginalis,Monochoria vaginalis,5 (Level 5: the growth inhibition rate is greater than 85%)
same,Activity level (growth inhibition rate) Abutilon theophrasti,Abutilon theophrasti,5 (Level 5: the growth inhibition rate is greater than 85%)
same,Activity level (growth inhibition rate) Setaria viridis,Setaria viridis,5 (Level 5: the growth inhibition rate is greater than 85%)
same,Activity level (growth inhibition rate) Digitaria sanguinalis,Digitaria sanguinalis,5 (Level 5: the growth inhibition rate is greater than 85%)
CSC(=O)C(C)Oc1nc(F)c(C(F)(F)F)c(N)c1Cl (stereo not drawn) [Compound 15],Activity level (growth inhibition rate) Leptochloa chinensis,Leptochloa chinensis,5 (Level 5: the growth inhibition rate is greater than 85%)
same,Activity level (growth inhibition rate) Galium spurium,Galium spurium,5 (Level 5: the growth inhibition rate is greater than 85%)
same,Activity level (growth inhibition rate) Monochoria Vaginalis,Monochoria vaginalis,5 (Level 5: the growth inhibition rate is greater than 85%)
same,Activity level (growth inhibition rate) Abutilon theophrasti,Abutilon theophrasti,5 (Level 5: the growth inhibition rate is greater than 85%)
same,Activity level (growth inhibition rate) Setaria viridis,Setaria viridis,5 (Level 5: the growth inhibition rate is greater than 85%)
same,Activity level (growth inhibition rate) Digitaria sanguinalis,Digitaria sanguinalis,5 (Level 5: the growth inhibition rate is greater than 85%)
COCCSC(=O)C(C)Oc1nc(F)c(Cl)c(N)c1Cl (stereo not drawn) [Compound 85],Activity level (growth inhibition rate) Leptochloa chinensis,Leptochloa chinensis,5 (Level 5: the growth inhibition rate is greater than 85%)
same,Activity level (growth inhibition rate) Galium spurium,Galium spurium,5 (Level 5: the growth inhibition rate is greater than 85%)
same,Activity level (growth inhibition rate) Monochoria Vaginalis,Monochoria vaginalis,5 (Level 5: the growth inhibition rate is greater than 85%)
same,Activity level (growth inhibition rate) Abutilon theophrasti,Abutilon theophrasti,5 (Level 5: the growth inhibition rate is greater than 85%)
same,Activity level (growth inhibition rate) Setaria viridis,Setaria viridis,5 (Level 5: the growth inhibition rate is greater than 85%)
same,Activity level (growth inhibition rate) Digitaria sanguinalis,Digitaria sanguinalis,5 (Level 5: the growth inhibition rate is greater than 85%)
CCCCC(C)SC(=O)C(C)Oc1nc(F)c(Cl)c(N)c1Cl (stereo not drawn) [Compound 151],Activity level (growth inhibition rate) Leptochloa chinensis,Leptochloa chinensis,5 (Level 5: the growth inhibition rate is greater than 85%)
same,Activity level (growth inhibition rate) Galium spurium,Galium spurium,5 (Level 5: the growth inhibition rate is greater than 85%)
same,Activity level (growth inhibition rate) Monochoria Vaginalis,Monochoria vaginalis,5 (Level 5: the growth inhibition rate is greater than 85%)
same,Activity level (growth inhibition rate) Abutilon theophrasti,Abutilon theophrasti,5 (Level 5: the growth inhibition rate is greater than 85%)
same,Activity level (growth inhibition rate) Setaria viridis,Setaria viridis,5 (Level 5: the growth inhibition rate is greater than 85%)
same,Activity level (growth inhibition rate) Digitaria sanguinalis,Digitaria sanguinalis,5 (Level 5: the growth inhibition rate is greater than 85%)
CC(Oc1nc(F)c(Cl)c(N)c1Cl)C(=O)SC[N+](=O)[O-] (stereo not drawn) [Compound 156],Activity level (growth inhibition rate) Leptochloa chinensis,Leptochloa chinensis,5 (Level 5: the growth inhibition rate is greater than 85%)
same,Activity level (growth inhibition rate) Galium spurium,Galium spurium,5 (Level 5: the growth inhibition rate is greater than 85%)
same,Activity level (growth inhibition rate) Monochoria Vaginalis,Monochoria vaginalis,5 (Level 5: the growth inhibition rate is greater than 85%)
same,Activity level (growth inhibition rate) Abutilon theophrasti,Abutilon theophrasti,5 (Level 5: the growth inhibition rate is greater than 85%)
same,Activity level (growth inhibition rate) Setaria viridis,Setaria viridis,5 (Level 5: the growth inhibition rate is greater than 85%)
same,Activity level (growth inhibition rate) Digitaria sanguinalis,Digitaria sanguinalis,5 (Level 5: the growth inhibition rate is greater than 85%)
CCSC(=O)C(C)Oc1ncc(Cl)c(N)c1C(F)(F)F (stereo not drawn) [Compound 16],Activity level (growth inhibition rate) Leptochloa chinensis,Leptochloa chinensis,5 (Level 5: the growth inhibition rate is greater than 85%)
same,Activity level (growth inhibition rate) Galium spurium,Galium spurium,5 (Level 5: the growth inhibition rate is greater than 85%)
same,Activity level (growth inhibition rate) Monochoria Vaginalis,Monochoria vaginalis,5 (Level 5: the growth inhibition rate is greater than 85%)
same,Activity level (growth inhibition rate) Abutilon theophrasti,Abutilon theophrasti,5 (Level 5: the growth inhibition rate is greater than 85%)
same,Activity level (growth inhibition rate) Setaria viridis,Setaria viridis,5 (Level 5: the growth inhibition rate is greater than 85%)
same,Activity level (growth inhibition rate) Digitaria sanguinalis,Digitaria sanguinalis,5 (Level 5: the growth inhibition rate is greater than 85%)
CCCCCCSC(=O)C(C)Oc1nc(F)c(Cl)c(N)c1Cl (stereo not drawn) [Compound 72],Activity level (growth inhibition rate) Leptochloa chinensis,Leptochloa chinensis,5 (Level 5: the growth inhibition rate is greater than 85%)
same,Activity level (growth inhibition rate) Galium spurium,Galium spurium,5 (Level 5: the growth inhibition rate is greater than 85%)
same,Activity level (growth inhibition rate) Monochoria Vaginalis,Monochoria vaginalis,5 (Level 5: the growth inhibition rate is greater than 85%)
same,Activity level (growth inhibition rate) Abutilon theophrasti,Abutilon theophrasti,5 (Level 5: the growth inhibition rate is greater than 85%)
same,Activity level (growth inhibition rate) Setaria viridis,Setaria viridis,5 (Level 5: the growth inhibition rate is greater than 85%)
same,Activity level (growth inhibition rate) Digitaria sanguinalis,Digitaria sanguinalis,5 (Level 5: the growth inhibition rate is greater than 85%)
CCCc1c(OC(C)C(=O)SCC(F)(F)F)nc(Br)c(Cl)c1N (stereo not drawn) [Compound 18],Activity level (growth inhibition rate) Leptochloa chinensis,Leptochloa chinensis,5 (Level 5: the growth inhibition rate is greater than 85%)
same,Activity level (growth inhibition rate) Galium spurium,Galium spurium,5 (Level 5: the growth inhibition rate is greater than 85%)
same,Activity level (growth inhibition rate) Monochoria Vaginalis,Monochoria vaginalis,5 (Level 5: the growth inhibition rate is greater than 85%)
same,Activity level (growth inhibition rate) Abutilon theophrasti,Abutilon theophrasti,5 (Level 5: the growth inhibition rate is greater than 85%)
same,Activity level (growth inhibition rate) Setaria viridis,Setaria viridis,5 (Level 5: the growth inhibition rate is greater than 85%)
same,Activity level (growth inhibition rate) Digitaria sanguinalis,Digitaria sanguinalis,5 (Level 5: the growth inhibition rate is greater than 85%)
C#CCSC(=O)C(C)Oc1nc(F)c(Cl)c(N)c1Cl (stereo not drawn) [Compound 90],Activity level (growth inhibition rate) Leptochloa chinensis,Leptochloa chinensis,5 (Level 5: the growth inhibition rate is greater than 85%)
same,Activity level (growth inhibition rate) Galium spurium,Galium spurium,5 (Level 5: the growth inhibition rate is greater than 85%)
same,Activity level (growth inhibition rate) Monochoria Vaginalis,Monochoria vaginalis,5 (Level 5: the growth inhibition rate is greater than 85%)
same,Activity level (growth inhibition rate) Abutilon theophrasti,Abutilon theophrasti,5 (Level 5: the growth inhibition rate is greater than 85%)
same,Activity level (growth inhibition rate) Setaria viridis,Setaria viridis,5 (Level 5: the growth inhibition rate is greater than 85%)
same,Activity level (growth inhibition rate) Digitaria sanguinalis,Digitaria sanguinalis,5 (Level 5: the growth inhibition rate is greater than 85%)
COC(=O)C(NC(=O)OC(C)(C)C)SC(=O)C(C)Oc1nc(F)c(Cl)c(N)c1Cl (stereo not drawn) [Compound 104],Activity level (growth inhibition rate) Leptochloa chinensis,Leptochloa chinensis,5 (Level 5: the growth inhibition rate is greater than 85%)
same,Activity level (growth inhibition rate) Galium spurium,Galium spurium,5 (Level 5: the growth inhibition rate is greater than 85%)
same,Activity level (growth inhibition rate) Monochoria Vaginalis,Monochoria vaginalis,5 (Level 5: the growth inhibition rate is greater than 85%)
same,Activity level (growth inhibition rate) Abutilon theophrasti,Abutilon theophrasti,5 (Level 5: the growth inhibition rate is greater than 85%)
same,Activity level (growth inhibition rate) Setaria viridis,Setaria viridis,5 (Level 5: the growth inhibition rate is greater than 85%)
same,Activity level (growth inhibition rate) Digitaria sanguinalis,Digitaria sanguinalis,5 (Level 5: the growth inhibition rate is greater than 85%)
CC(Oc1nc(F)c(Cl)c(N)c1Cl)C(=O)SCC#N (stereo not drawn) [Compound 155],Activity level (growth inhibition rate) Leptochloa chinensis,Leptochloa chinensis,5 (Level 5: the growth inhibition rate is greater than 85%)
same,Activity level (growth inhibition rate) Galium spurium,Galium spurium,5 (Level 5: the growth inhibition rate is greater than 85%)
same,Activity level (growth inhibition rate) Monochoria Vaginalis,Monochoria vaginalis,5 (Level 5: the growth inhibition rate is greater than 85%)
same,Activity level (growth inhibition rate) Abutilon theophrasti,Abutilon theophrasti,5 (Level 5: the growth inhibition rate is greater than 85%)
same,Activity level (growth inhibition rate) Setaria viridis,Setaria viridis,5 (Level 5: the growth inhibition rate is greater than 85%)
same,Activity level (growth inhibition rate) Digitaria sanguinalis,Digitaria sanguinalis,5 (Level 5: the growth inhibition rate is greater than 85%)
CCNc1c(Cl)c(F)nc(OC(C)C(=O)SC)c1Cl (stereo not drawn) [Compound 128],Activity level (growth inhibition rate) Leptochloa chinensis,Leptochloa chinensis,5 (Level 5: the growth inhibition rate is greater than 85%)
same,Activity level (growth inhibition rate) Galium spurium,Galium spurium,5 (Level 5: the growth inhibition rate is greater than 85%)
same,Activity level (growth inhibition rate) Monochoria Vaginalis,Monochoria vaginalis,5 (Level 5: the growth inhibition rate is greater than 85%)
same,Activity level (growth inhibition rate) Abutilon theophrasti,Abutilon theophrasti,5 (Level 5: the growth inhibition rate is greater than 85%)
same,Activity level (growth inhibition rate) Setaria viridis,Setaria viridis,5 (Level 5: the growth inhibition rate is greater than 85%)
same,Activity level (growth inhibition rate) Digitaria sanguinalis,Digitaria sanguinalis,5 (Level 5: the growth inhibition rate is greater than 85%)
